Source: patent publication US20190256626A1, “SURFACTANTS AND METHODS FOR MAKING SAME” (REGENTS OF THE UNIVERSITY OF MINNESOTA, priority 2016, published 2019)
Marks after values point to notes of the source that are not given here.

Key:
[1] = TGA of Dispersions A-J (oxaprozin or 5-methyl-5-phenylhydantoin) and pure drugs; type: physicochemical; settings: pure drugs
Experimental: (§1) Thermogravimetric analysis (TGA) of Dispersions A-J was performed using a Q500 instrument from TA Instruments. The decomposition temperature (Td) at 5% was recorded for each dispersion and Td,1% was recorded for the pure drugs. Td,5% was recorded for the dispersions due to the hydrophilic properties of the surfactants, which required removal of surface moisture before the materials began to decompose. Differential Scanning Calorimetry (DSC) experiments were performed on Dispersions A-J and pure oxaprozin and 5-methyl-5-phenylhydantoin using a Discovery Series instrument from TA Instruments. Each dispersion was heated twice to Td,5%. The pure compounds were heated twice to Td,1%. The heating rate in all experiments was 10° C./min. […] These values approached the Tg value of pure surfactants (135.76° C.) as the ratio of the molecular weight of the poly(N-isopropylacrylamide) hydrophilic segment in kDa/mol to (m+1) increased. Generally, the dispersions including oxaprozin yielded lower Tg values. Without being bound by theory, the lower Tg values might be attributable to the larger size of oxaprozin, which would further disrupt surfactant packing.

[2] = DSC of Dispersions A-J (oxaprozin or 5-methyl-5-phenylhydantoin) and pure drugs; type: physicochemical; settings: heating rate 10° C./min
Experimental: as §1

Row | SMILES | Td,1% [1] | First Heat Tg [2]
1 | CC1(c2ccccc2)NC(=O)NC1=O (stereo not shown) [5-methyl-5-phenylhydantoin] | 188* ° C. | 134 °C
2 | O=C(O)CCc1nc(-c2ccccc2)c(-c2ccccc2)o1 [Oxaprozin, oxaprozin] | 206* ° C. | 21 °C
